The first data set relates to DND-41 acute lymphoblastic leukemia cells. Nature of the data set: In vitro antiproliferative activity, MTS proliferation assay. The data set is classed as cell-based. The note with it: Homo sapiens, DND41, 72 h. Here is the method: (§1) Culture media were purchased from Gibco Life Technologies, USA, and supplemented with 10% fetal bovine serum (HyClone, GE Healthcare Life Sciences, Chicago, IL, USA), except for the media for SW620, PC3 and HeLa cells, which were purchased from Sigma.
(§2) Cells were incubated for 72 h with compounds and were then analyzed using the CellTiter 96® AQueous One Solution Cell Proliferation Assay (MTS) reagent (Promega) according to the manufacturer’s instructions. […] Compounds were tested in two independent experiments. SW620, PC3 and HeLa cells were seeded in 96-well microtiter plates at 1 × 10^4 to 3 × 10^4 cells/mL, depending on the doubling times of the specific cell line. Test agents were then added in five 10-fold dilutions (10^−8 to 10^−4 M). Working dilutions were freshly prepared on the day of testing. After 72 h of incubation, the cell growth rate was evaluated using the MTT assay as described previously. […] Each test was performed in quadruplicate in at least two individual experiments.
On to `c1ccc(-c2nc3ncccc3[nH]2)cc1` [Compound 5, 2-Phenyl-1H-imidazo[4:5-b]pyridine], for which the IC50 (commonly the midpoint of a concentration-inhibition curve) is more than 100 µM.

Consider `Cl.c1cnc2nc(-c3ccc(C4=NCCN4)cc3)[nH]c2c1` [Compound 11, 2-(4-(4,5-Dihydro-1H-imidazol-2-yl)phenyl)-1H-imidazo[4,5-b]pyridine Hydrochloride], for which the IC50 came out at 48.8 ± 12.5 µM.

A further data set relates to Capan-1 pancreatic adenocarcinoma cells. The description is as above. The data set is classed as cell-based. The note with it: Homo sapiens, 72 h. How it is done:
as §1, §2
Turning to `c1ccc(-c2nc3ncccc3[nH]2)cc1` [Compound 5, 2-Phenyl-1H-imidazo[4:5-b]pyridine], it took 98 ± 2.9 µM to reach half-maximal inhibition (IC50).

For `Cl.c1cnc2nc(-c3ccc(C4=NCCN4)cc3)[nH]c2c1` [Compound 11, 2-(4-(4,5-Dihydro-1H-imidazol-2-yl)phenyl)-1H-imidazo[4,5-b]pyridine Hydrochloride], the IC50 turned out to be 74.5 ± 36.1 µM.

Another data set deals with HL-60 acute myeloid leukemia cells. The description is as above. Conditions: Homo sapiens, 72 h. The data set is classed as cell-based. How it is done:
as §1, §2
`c1ccc(-c2nc3ncccc3[nH]2)cc1` [Compound 5, 2-Phenyl-1H-imidazo[4:5-b]pyridine] yielded an IC50 of 81.7 ± 26 µM.

`Cl.c1cnc2nc(-c3ccc(C4=NCCN4)cc3)[nH]c2c1` [Compound 11, 2-(4-(4,5-Dihydro-1H-imidazol-2-yl)phenyl)-1H-imidazo[4,5-b]pyridine Hydrochloride]: the IC50 is more than 100 µM.

A further data set has as its system Z-138 non-Hodgkin lymphoma cells. Described as above. The data set is classed as cell-based, human. Conditions: Homo sapiens, Z-138, 72 h. The text has this:
(§3) Human cancer cell lines used in this manuscript, namely Capan-1, HCT-116, NCI-H460, LN-229, HL-60, K-562, Z-138, SW620, PC3 and HeLa, were acquired from the American Type Culture Collection (ATCC, Manassas, VA, USA), while the DND-41 cell line was purchased from the Deutsche Sammlung von Mikroorganismen und Zellkulturen (DSMZ Leibniz-Institut, Germany). Culture media were purchased from Gibco Life Technologies, USA, and supplemented with 10% fetal bovine serum (HyClone, GE Healthcare Life Sciences, Chicago, IL, USA), except for the media for SW620, PC3 and HeLa cells, which were purchased from Sigma.
(§4) Adherent cell lines LN-229, HCT-116, NCI-H460 and Capan-1 cells were seeded at a density between 500 and 1500 cells per well in 384-well tissue culture plates (Greiner). […]. Cells were incubated for 72 h with compounds and were then analyzed using the CellTiter 96® AQueous One Solution Cell Proliferation Assay (MTS) reagent (Promega) according to the manufacturer’s instructions. Absorbance of the samples was measured at 490 nm using a SpectraMax Plus 384 (Molecular Devices), and OD values were used to calculate the 50% inhibitory concentration (IC50). Compounds were tested in two independent experiments. SW620, PC3 and HeLa cells were seeded in 96-well microtiter plates at 1 × 10^4 to 3 × 10^4 cells/mL, depending on the doubling times of the specific cell line. Test agents were then added in five 10-fold dilutions (10^−8 to 10^−4 M). Working dilutions were freshly prepared on the day of testing. After 72 h of incubation, the cell growth rate was evaluated using the MTT assay as described previously. Absorbance of the samples was measured at 570 nm, and OD values were used to calculate the 50% inhibitory concentration (IC50). Each test was performed in quadruplicate in at least two individual experiments.
In turn, `c1ccc(-c2nc3ncccc3[nH]2)cc1` [Compound 5, 2-Phenyl-1H-imidazo[4:5-b]pyridine] had an IC50 of more than 100 µM.

Take `Cl.c1cnc2nc(-c3ccc(C4=NCCN4)cc3)[nH]c2c1` [Compound 11, 2-(4-(4,5-Dihydro-1H-imidazol-2-yl)phenyl)-1H-imidazo[4,5-b]pyridine Hydrochloride]: the IC50 is 76.4 ± 33.4 µM.

System in a further data set: not given
Experiment: not given
Settings: not given
As for `c1ccc(-c2nc3ncccc3[nH]2)cc1` [Compound 5, 2-Phenyl-1H-imidazo[4:5-b]pyridine], the melting point (as a rule, the temperature of the solid-liquid transition) fell in the range of 290 to 291 °C.

For the compound `Cl.c1cnc2nc(-c3ccc(C4=NCCN4)cc3)[nH]c2c1` [Compound 11, 2-(4-(4,5-Dihydro-1H-imidazol-2-yl)phenyl)-1H-imidazo[4,5-b]pyridine Hydrochloride], the melting point was more than 300 °C.

System in a further data set: not listed separately
Nature of the data set: in vitro. The note with it: dog.
Turning to `c1ccc(-c2nc3ncccc3[nH]2)cc1` [Compound 5, 2-Phenyl-1H-imidazo[4:5-b]pyridine], the CC50 is 79.2 ± 29.4 µM.

As to `Cl.c1cnc2nc(-c3ccc(C4=NCCN4)cc3)[nH]c2c1` [Compound 11, 2-(4-(4,5-Dihydro-1H-imidazol-2-yl)phenyl)-1H-imidazo[4,5-b]pyridine Hydrochloride], the CC50 is more than 100 µM.

In a further data set the test system is LN-229 glioblastoma cells. Briefly: In vitro antiproliferative activity, MTS proliferation assay. The data set is classed as cell-based. The note with it: Homo sapiens, 72 h.
Excerpt: as §3, §4
On to `c1ccc(-c2nc3ncccc3[nH]2)cc1` [Compound 5, 2-Phenyl-1H-imidazo[4:5-b]pyridine], for which the IC50 is more than 100 µM.

Regarding `Cl.c1cnc2nc(-c3ccc(C4=NCCN4)cc3)[nH]c2c1` [Compound 11, 2-(4-(4,5-Dihydro-1H-imidazol-2-yl)phenyl)-1H-imidazo[4,5-b]pyridine Hydrochloride], 81.7 ± 17.4 µM corresponded to half-maximal inhibition (IC50).

The subject of a further data set is K-562 chronic myeloid leukemia cells. Described as above. The class given is cell-based. Conditions: Homo sapiens, K562, 72 h.
Excerpt: as §3, §4
For `c1ccc(-c2nc3ncccc3[nH]2)cc1` [Compound 5, 2-Phenyl-1H-imidazo[4:5-b]pyridine], the IC50 is more than 100 µM.

On to `Cl.c1cnc2nc(-c3ccc(C4=NCCN4)cc3)[nH]c2c1` [Compound 11, 2-(4-(4,5-Dihydro-1H-imidazol-2-yl)phenyl)-1H-imidazo[4,5-b]pyridine Hydrochloride], for which the IC50 was more than 100 µM.

The next data set has as its system NCI-H460 lung carcinoma cells. The description is as above. The data set is classed as cell-based. The note with it: Homo sapiens, 72 h.
Excerpt: as §3, §4
Compound `c1ccc(-c2nc3ncccc3[nH]2)cc1` [Compound 5, 2-Phenyl-1H-imidazo[4:5-b]pyridine] returned an IC50 of more than 100 µM.

Consider `Cl.c1cnc2nc(-c3ccc(C4=NCCN4)cc3)[nH]c2c1` [Compound 11, 2-(4-(4,5-Dihydro-1H-imidazol-2-yl)phenyl)-1H-imidazo[4,5-b]pyridine Hydrochloride], for which it took 84.9 ± 21.4 µM to reach half-maximal inhibition (IC50).

The subject of another data set is HCT-116 colorectal carcinoma cells. Described as above. The data set is classed as cell-based. The note with it: Homo sapiens, 72 h.
Excerpt: as §3, §4
The compound `c1ccc(-c2nc3ncccc3[nH]2)cc1` [Compound 5, 2-Phenyl-1H-imidazo[4:5-b]pyridine] had an IC50 of more than 100 µM.

`Cl.c1cnc2nc(-c3ccc(C4=NCCN4)cc3)[nH]c2c1` [Compound 11, 2-(4-(4,5-Dihydro-1H-imidazol-2-yl)phenyl)-1H-imidazo[4,5-b]pyridine Hydrochloride] displayed an IC50 of more than 100 µM.

System in another data set: not listed separately
Nature of the data set: in vitro.
Settings: not given
As to `c1ccc(-c2nc3ncccc3[nH]2)cc1` [Compound 5, 2-Phenyl-1H-imidazo[4:5-b]pyridine], the CC50 was more than 30 µM.

In turn, `Cl.c1cnc2nc(-c3ccc(C4=NCCN4)cc3)[nH]c2c1` [Compound 11, 2-(4-(4,5-Dihydro-1H-imidazol-2-yl)phenyl)-1H-imidazo[4,5-b]pyridine Hydrochloride] returned a CC50 of more than 30 µM.

The next data set has as its system HeLa cervical carcinoma cells. Briefly: In vitro antiproliferative activity, MTT assay. The class given is cell-based. Conditions: Homo sapiens, 72 h.
Excerpt: as §3, §4
Background: Tetrazolium assays rely on reduction of a dye to a coloured formazan, in cell work by metabolically active cells.
In turn, `c1ccc(-c2nc3ncccc3[nH]2)cc1` [Compound 5, 2-Phenyl-1H-imidazo[4:5-b]pyridine] returned an IC50 of 13.6 ± 3.4 µM.

`Cl.c1cnc2nc(-c3ccc(C4=NCCN4)cc3)[nH]c2c1` [Compound 11, 2-(4-(4,5-Dihydro-1H-imidazol-2-yl)phenyl)-1H-imidazo[4,5-b]pyridine Hydrochloride] had an IC50 of 11.1 ± 3.5 µM.

The next data set concerns PC3 prostate carcinoma cells. Briefly: In vitro antiproliferative activity, MTT assay. The data set is classed as cell-based. The note with it: Homo sapiens, 72 h.
Excerpt: as §3, §4
`c1ccc(-c2nc3ncccc3[nH]2)cc1` [Compound 5, 2-Phenyl-1H-imidazo[4:5-b]pyridine] showed an IC50 of more than 100 µM.

In turn, `Cl.c1cnc2nc(-c3ccc(C4=NCCN4)cc3)[nH]c2c1` [Compound 11, 2-(4-(4,5-Dihydro-1H-imidazol-2-yl)phenyl)-1H-imidazo[4,5-b]pyridine Hydrochloride] came in with an IC50 not below 100 µM.

For the next data set, the system named is SW620 colon carcinoma cells. Nature of the data set: In vitro antiproliferative activity, MTT assay. The class given is cell-based. Conditions: Homo sapiens, SW-620, 72 h.
Excerpt: as §3, §4
The compound `c1ccc(-c2nc3ncccc3[nH]2)cc1` [Compound 5, 2-Phenyl-1H-imidazo[4:5-b]pyridine] came in with an IC50 of more than 100 µM.

As to `Cl.c1cnc2nc(-c3ccc(C4=NCCN4)cc3)[nH]c2c1` [Compound 11, 2-(4-(4,5-Dihydro-1H-imidazol-2-yl)phenyl)-1H-imidazo[4,5-b]pyridine Hydrochloride], inhibition was half-maximal at 12.1 ± 3.7 µM (IC50).

In another data set the test system is E. coli Efflux Del. Briefly: microbe, parasite or virus in culture. The class given is cell-based. The note with it: Escherichia coli, read-out: MIC E. coli Efflux Del. Here is the method: (§5) Synthesized compounds were prepared as 10 mM DMSO solutions and tested in a final concentration range of 100–0.2 µM [34].
(§6) Broth microdilution testing was performed according to CLSI (Clinical Laboratory Standards Institute) guidelines. MIC (minimal inhibitory concentration) values were defined as the last tested concentration of the compound at which there was no visible growth of bacteria. Inoculums for each microorganism were prepared using the direct colony suspension method, where broth solutions that achieved turbidity equivalent to 0.5 McFarland standard were additionally diluted 100× with Ca-adjusted MH media (Becton Dickinson).
As to `c1ccc(-c2nc3ncccc3[nH]2)cc1` [Compound 5, 2-Phenyl-1H-imidazo[4:5-b]pyridine], the MIC was more than 64 µM.

In the case of `Cl.c1cnc2nc(-c3ccc(C4=NCCN4)cc3)[nH]c2c1` [Compound 11, 2-(4-(4,5-Dihydro-1H-imidazol-2-yl)phenyl)-1H-imidazo[4,5-b]pyridine Hydrochloride], the MIC is more than 64 µM.

The subject of another data set is S. aureus ATCC 29213. Briefly: Antibacterial activity in vitro, broth microdilution. The note with it: Staphylococcus aureus, ATCC29213; broth microdilution (CLSI), 16–24 h at 37 °C. The data set is classed as cell-based. Here is the method:
as §5, §6
A general note: In broth dilution the organism is exposed to a series of concentrations in liquid medium.
In turn, `c1ccc(-c2nc3ncccc3[nH]2)cc1` [Compound 5, 2-Phenyl-1H-imidazo[4:5-b]pyridine] displayed an MIC of more than 64 µM.

Regarding `Cl.c1cnc2nc(-c3ccc(C4=NCCN4)cc3)[nH]c2c1` [Compound 11, 2-(4-(4,5-Dihydro-1H-imidazol-2-yl)phenyl)-1H-imidazo[4,5-b]pyridine Hydrochloride], the MIC is more than 64 µM.

For the next data set, the system named is E. coli ATCC 25922. The description is as above. The data set is classed as cell-based. The note with it: Escherichia coli, ATCC25922; broth microdilution (CLSI), 16–24 h at 37 °C. How it is done: as §5, §6
Compound `c1ccc(-c2nc3ncccc3[nH]2)cc1` [Compound 5, 2-Phenyl-1H-imidazo[4:5-b]pyridine] had an MIC of more than 64 µM.

`Cl.c1cnc2nc(-c3ccc(C4=NCCN4)cc3)[nH]c2c1` [Compound 11, 2-(4-(4,5-Dihydro-1H-imidazol-2-yl)phenyl)-1H-imidazo[4,5-b]pyridine Hydrochloride] had an MIC of more than 64 µM.

The subject of a further data set is S. Pneumoniae ATCC 49619. The data set is described as above. The class given is cell-based. The note with it: Streptococcus pneumoniae, ATCC49619; broth microdilution (CLSI), 16–24 h at 37 °C. Here is the method: as §5, §6
Compound `c1ccc(-c2nc3ncccc3[nH]2)cc1` [Compound 5, 2-Phenyl-1H-imidazo[4:5-b]pyridine] came in with an MIC of more than 64 µM.

For `Cl.c1cnc2nc(-c3ccc(C4=NCCN4)cc3)[nH]c2c1` [Compound 11, 2-(4-(4,5-Dihydro-1H-imidazol-2-yl)phenyl)-1H-imidazo[4,5-b]pyridine Hydrochloride], the MIC was more than 64 µM.
